Experimental data: patent publication US20240075005A1 (LIGALLI BV, priority 2021, published 2024)
Values joined by “and” are separate entries in the source; they are usually repeats but may differ in a detail not shown here. Identical values can stand only once.

Assay: Pharmacokinetic trial: single 3 mg intravaginal dose of oxybutynin HCl delivered by the MedRing vaginal ring, plasma LC/MS/MS
Assay type: in vivo, human (female subjects)
Excerpt: This trial investigated the feasibility of pulsed intra-vaginal delivery of oxybutynin and explored systemic exposure after application via the MedRing device.
The trial included female subjects of childbearing potential (women of childbearing potential, WOCBP) aged between 18 and 45 years (inclusive) and female postmenopausal subjects aged between 50 and 69 years (inclusive); Postmenopausal status is defined as age≥50 years and having >12 months amenorrhoea in the absence of hormonal therapy that may cause amenorrhoea.
Subjects began a 4-hour pre-dose fasting period before arriving to the clinic until 2 hours post-dose. Upon arrival, the subjects underwent pre-dose measurements to re-confirm eligibility for the study and to perform baseline measurements. The MedRing was inserted intra-vaginally by medically trained personnel. Water was allowed ad libitum. Subjects underwent blood sampling throughout the day. The MedRing was removed by medical study personnel 2 hours post dose in the first cohort. The MedRing was removed by medical personnel 6 hours post dose in the second cohort. The subjects went home approximately 8 hours post dose. The following day, the subjects of the second cohort returned to the clinic for an ambulant blood sample.
Plasma samples were also used for assessment of the concentrations of the metabolite, N-desethyloxybutynin.

SMILES: CCNCC#CCOC(=O)C(O)(c1ccccc1)C1CCCCC1 (stereo not shown) [N-desethyloxybutynin]
- Area under the concentration-time curve to infinity (AUCinf) in plasma, mean (±SD) (3 mg oxybutynin HCl intravaginal via MedRing): 51.1 (±43.1)
- t1/2, mean (±SD) (3 mg oxybutynin HCl intravaginal via MedRing, plasma): 7.7 h
- tmax, median (min-max) (3 mg oxybutynin HCl intravaginal via MedRing, post dose, plasma): 4 hours and 4 (3-5) hours
- Cmax in plasma, mean (±standard deviation) (3 mg oxybutynin HCl intravaginal via MedRing, single dose, 8 female subjects): 3.9 ng/mL
- plasma concentrations relative to known safety window (intravaginal via MedRing): well within the known safety window
- plasma levels after 22 hours (second cohort (MedRing in situ 6 hours), 22-hour sample): found in all 4 subjects

SMILES: CCN(CC)CC#CCOC(=O)C(O)(c1ccccc1)C1CCCCC1 (stereo not shown) [oxybutynin]
- AUC(0-inf) (female, human, in vivo, 3 mg): 34.9 ng·h/mL
- Cmax (female, human, in vivo, 3 mg): 5.4 ng/mL
- Tmax (female, human, in vivo, 3 mg): 2 h
- half-life (female, human, in vivo, 3 mg): 8.5 h
- t1/2, mean (±SD) (female, human, in vivo, 3 mg): 8.5 (±3.5) hours
- tmax, median (min-max) (female, human, in vivo, 3 mg): 2 (1-5) hours
- plasma levels after 22 hours (female, human, in vivo, 22 h): found in all 4 subjects
